Test results: ChEMBL document CHEMBL1130104 (J Med Chem, 1997)
pEC50: −log10 of the molar value.

system: HeLa; assay: Compound was tested for Anti-HIV activity by plaque reduction assay with wild type HIV-1LAI virus in HT4-6C human CD4+ […]; assay type: functional, cell-based; settings: not given

First: CCCCCCCCCCCCCCCCCCCCOC(=O)P(=O)(O)OC[C@H]1O[C@@H](n2cc(C)c(=O)[nH]c2=O)C[C@@H]1N=[N+]=[N-].N
Second: CCCCCCCCCCCCCCCCCCCCCCOC(=O)P(=O)(O)OC[C@H]1O[C@@H](n2cc(C)c(=O)[nH]c2=O)C[C@@H]1N=[N+]=[N-].N
The pEC50 of the first is 0.36 log units higher: 6.85 for the first, 6.49 for the second. The first is the more potent here.

First: CCCCCCCCCCCCCCCCCCOC(=O)P(=O)(O)OC[C@H]1O[C@@H](n2cc(C)c(=O)[nH]c2=O)C[C@@H]1N=[N+]=[N-].N
Second: Cc1cn([C@H]2C[C@H](N=[N+]=[N-])[C@@H](CO)O2)c(=O)[nH]c1=O [ZIDOVUDINE]
The pEC50 of the first is 0.89 log units lower: 7.00 for the first, 7.89 for the second. The second is the more potent here.

`O=C(O)P(=O)(O)O` [FOSCARNET] gave a pEC50 of 3.88.

system: not listed separately; assay: compound was tested for 50% toxic concentration by flow cytometry after propidium iodide staining after 3 days of drug treatment in CEM lymphoblast cells.; settings: human, read-out: TC50

First: CCCCCCCCCCCCCCCCCCCCOC(=O)P(=O)(O)OC[C@H]1O[C@@H](n2cc(C)c(=O)[nH]c2=O)C[C@@H]1N=[N+]=[N-].N
Second: CCCCCCCCCCCCCCCCCCCCCCOC(=O)P(=O)(O)OC[C@H]1O[C@@H](n2cc(C)c(=O)[nH]c2=O)C[C@@H]1N=[N+]=[N-].N
The CC50 at 72 h of the first is 2.6-fold lower: 36 µM for the first, 93 µM for the second.

Going from `CCCCCCCCCCCCCCCCCCOC(=O)P(=O)(O)OC[C@H]1O[C@@H](n2cc(C)c(=O)[nH]c2=O)C[C@@H]1N=[N+]=[N-].N` to `O=C(O)P(=O)(O)O` [FOSCARNET], the CC50 at 72 h rises from 28 µM to 800 µM (29-fold).

system: not listed separately; assay: selectivity index expressed as TC50/EC50; EC50 values are calculated from HT4-6C cells infected with HIV-1LAI virus.; settings: not given

Going from `CCCCCCCCCCCCCCCCCCOC(=O)P(=O)(O)OC[C@H]1O[C@@H](n2cc(C)c(=O)[nH]c2=O)C[C@@H]1N=[N+]=[N-].N` to `O=C(O)P(=O)(O)O` [FOSCARNET], the Selectivity index falls from 280 to 6.

system: not listed separately; assay: selectivity index = TC50/EC50. The EC50 values are calculated from CEM lymphoblast cells infected with HIV-1LAI virus.; assay type: functional, CCRF-CEM; settings: not given

First: CCCCCCCCCCCCCCCCCCCCOC(=O)P(=O)(O)OC[C@H]1O[C@@H](n2cc(C)c(=O)[nH]c2=O)C[C@@H]1N=[N+]=[N-].N
Second: CCCCCCCCCCCCCCCCCCCCCCOC(=O)P(=O)(O)OC[C@H]1O[C@@H](n2cc(C)c(=O)[nH]c2=O)C[C@@H]1N=[N+]=[N-].N
The Selectivity index of the first is lower: 257 for the first, 291 for the second.

system: HeLa; assay: compound was tested for 50% toxic concentration by visual grading scale of cells after 3 days of drug treatment in HT4-6C cells.; assay type: functional; settings: Homo sapiens, 72 h, read-out: TC50 (the source's name)

Going from `CCCCCCCCCCCCCCCCCCCCOC(=O)P(=O)(O)OC[C@H]1O[C@@H](n2cc(C)c(=O)[nH]c2=O)C[C@@H]1N=[N+]=[N-].N` to `CCCCCCCCCCCCCCCCCCCCCCOC(=O)P(=O)(O)OC[C@H]1O[C@@H](n2cc(C)c(=O)[nH]c2=O)C[C@@H]1N=[N+]=[N-].N`, the CC50 rises from 32 µM to 320 µM (10-fold).

Compared with `CCCCCCCCCCCCCCCCCCOC(=O)P(=O)(O)OC[C@H]1O[C@@H](n2cc(C)c(=O)[nH]c2=O)C[C@@H]1N=[N+]=[N-].N`, `O=C(O)P(=O)(O)O` [FOSCARNET] is 100-fold higher in CC50: 10 µM for the first, 1000 µM for the second.

system: not listed separately; assay: selectivity index expressed as TC50/EC50; EC50 values are calculated from […] cells infected with HIV-1LAI; assay type: functional; settings: not given

Compared with `CCCCCCCCCCCCCCCCCCCCOC(=O)P(=O)(O)OC[C@H]1O[C@@H](n2cc(C)c(=O)[nH]c2=O)C[C@@H]1N=[N+]=[N-].N`, `CCCCCCCCCCCCCCCCCCCCCCOC(=O)P(=O)(O)OC[C@H]1O[C@@H](n2cc(C)c(=O)[nH]c2=O)C[C@@H]1N=[N+]=[N-].N` is higher in Selectivity index: 228 for the first, 1000 for the second.

For `CCCCCCCCCCCCCCCCCCOC(=O)P(=O)(O)OC[C@H]1O[C@@H](n2cc(C)c(=O)[nH]c2=O)C[C@@H]1N=[N+]=[N-].N`, the Selectivity index was 100.

`O=C(O)P(=O)(O)O` [FOSCARNET] gave a Selectivity index of over 7.5.

system: HeLa; assay: Compound was tested for Anti-HIV activity by plaque reduction assay with A018-post virus in HT4-6C human CD4+ […]; assay type: functional, cell-based; settings: not given

`CCCCCCCCCCCCCCCCCCCCOC(=O)P(=O)(O)OC[C@H]1O[C@@H](n2cc(C)c(=O)[nH]c2=O)C[C@@H]1N=[N+]=[N-].N` and `CCCCCCCCCCCCCCCCCCCCCCOC(=O)P(=O)(O)OC[C@H]1O[C@@H](n2cc(C)c(=O)[nH]c2=O)C[C@@H]1N=[N+]=[N-].N` are within 0.2 log units of each other in pEC50: 6.28 for the first, 6.11 for the second.

Going from `CCCCCCCCCCCCCCCCCCOC(=O)P(=O)(O)OC[C@H]1O[C@@H](n2cc(C)c(=O)[nH]c2=O)C[C@@H]1N=[N+]=[N-].N` to `Cc1cn([C@H]2C[C@H](N=[N+]=[N-])[C@@H](CO)O2)c(=O)[nH]c1=O` [ZIDOVUDINE], the pEC50 falls from 6.52 to 5.54 (0.98 log units).

In the case of `O=C(O)P(=O)(O)O` [FOSCARNET], the pEC50 was 4.19.

system: HeLa; assay: Compound was tested for Anti-HIV activity by plaque reduction assay with E89K virus in HT4-6C human CD4+ […]; assay type: functional, cell-based; settings: not given

Going from `CCCCCCCCCCCCCCCCCCCCOC(=O)P(=O)(O)OC[C@H]1O[C@@H](n2cc(C)c(=O)[nH]c2=O)C[C@@H]1N=[N+]=[N-].N` to `CCCCCCCCCCCCCCCCCCCCCCOC(=O)P(=O)(O)OC[C@H]1O[C@@H](n2cc(C)c(=O)[nH]c2=O)C[C@@H]1N=[N+]=[N-].N`, the pEC50 falls from 8.05 to 6.77 (1.28 log units). The first is the more potent here.

Going from `CCCCCCCCCCCCCCCCCCOC(=O)P(=O)(O)OC[C@H]1O[C@@H](n2cc(C)c(=O)[nH]c2=O)C[C@@H]1N=[N+]=[N-].N` to `Cc1cn([C@H]2C[C@H](N=[N+]=[N-])[C@@H](CO)O2)c(=O)[nH]c1=O` [ZIDOVUDINE], the pEC50 rises from 6.89 to 8.05 (1.16 log units). The second is the more potent here.

`O=C(O)P(=O)(O)O` [FOSCARNET] gave a pEC50 of under 3.00.
